Tests used:
ICR mice [1] = experiment: 30-day repeated oral administration: general blood test; assay type: in vivo; set-up: key: ↓: Decreased; →: No change; ↑: Increased; settings: 30 days, vs control group
Experimental: (§1) 24R,25-(OH)₂-D₃ was dissolved in 1% ethanol containing Panacate 810 to a predetermined concentration and the resultant solution was forcibly and orally administered to 5-week-old male or female ICR mice for 30 days in succession so that the does might become to 10 µg/kg/day, 100 µg/kg/day and 1,000 µg/kg/day, respectively. The thus treated mice were compared with a group of mice to which only the solvent had been administered in the following test items.

ICR mice [2] = experiment: 30-day repeated oral administration: pathological inspection of organs; assay type: in vivo; settings: 10, 100 and 1,000 µg/kg/day oral, 30 days; 10% formalin, hematoxylin-eosin
Experimental: as §1
The following organs were fixed by 10% formalin, stained with hematoxylin-eosin and subjected to pathological inspection.

[3] = 30-day repeated oral administration: growth curve of measured weights; assay type: in vivo, ICR mice; settings: 10, 100 and 1,000 µg/kg/day oral, 30 days, male or female, vs solvent group
Experimental: as §1

ICR mice [4] = experiment: 30-day repeated oral administration: weight of organs; assay type: in vivo; set-up: key: ↓: Decreased; →: No change; ↑: Increased; settings: 30 days, vs control group
Experimental: as §1

[5] = test system: rabbits suffering fracture; experiment: Fibula fracture model: strength test (bending test); assay type: in vivo, Japanese white house rabbits; settings: 100 µg/kg oral, average value ± standard deviation
Excerpt: The right fibulae of mature house rabbits (Japanese white house rabbits having a weight of about 3 kg) were broken at the central portions under anesthetic with a dental hand drill. Each of the house rabbits was kept in a separate cage and was allowed to take an ordinary solid food (CR-1, produced by Nippon Clare Corp.) and city water freely. 24R,25-(OH)₂-D₃ and 24S,25-(OH)₂-D₃ were dispersed in an aqueous 0.5% CMC solution and orally administered to the house rabbits through a rubber catheter. The experimental groups were as follows:
The respective medicines or aqueous 0.5% CMC solution was administered to these house rabbits for 3 weeks or 6 weeks after the bones had been broken. Thereafter, the house rabbits were killed and the fibulae were taken out for X-ray inspection and a strength test (bending test by DDV-VMF produced by Toyo Baldwin Co., Ltd.).

ICR mice [6] = experiment: 30-day repeated oral administration: urine analysis; assay type: in vivo; set-up: key: ↓: Decreased; →: No change; ↑: Increased; settings: 30 days, vs control group
Experimental: as §1

C=C1CC[C@H](O)C/C1=C/C=C1\CCC[C@]2(C)[C@@H]([C@H](C)CC[C@@H](O)C(C)(C)O)CC[C@@H]12 [24R,25-(OH)₂-D₃]
Amount of hemoglobin (ICR mice [1]; female, 10 μg/kg·day oral): →
Homatocrit (ICR mice [1]; female, 10 μg/kg·day oral): →
Number of erythrocyte (ICR mice [1]; female, 10 μg/kg·day oral): →
Number of leucocyte (ICR mice [1]; female, 10 μg/kg·day oral): →
Amount of hemoglobin (ICR mice [1]; female, 100 μg/kg·day oral): →
Homatocrit (ICR mice [1]; female, 100 μg/kg·day oral): →
Number of erythrocyte (ICR mice [1]; female, 100 μg/kg·day oral): →
Number of leucocyte (ICR mice [1]; female, 100 μg/kg·day oral): →
Amount of hemoglobin (ICR mice [1]; female, 1000 μg/kg·day oral): →
Homatocrit (ICR mice [1]; female, 1000 μg/kg·day oral): →
Number of erythrocyte (ICR mice [1]; female, 1000 μg/kg·day oral): →
Number of leucocyte (ICR mice [1]; female, 1000 μg/kg·day oral): →
Amount of hemoglobin (ICR mice [1]; male, 10 μg/kg·day oral): →
Homatocrit (ICR mice [1]; male, 10 μg/kg·day oral): →
Number of erythrocyte (ICR mice [1]; male, 10 μg/kg·day oral): →
Number of leucocyte (ICR mice [1]; male, 10 μg/kg·day oral): →
Amount of hemoglobin (ICR mice [1]; male, 100 μg/kg·day oral): →
Homatocrit (ICR mice [1]; male, 100 μg/kg·day oral): →
Number of erythrocyte (ICR mice [1]; male, 100 μg/kg·day oral): →
Number of leucocyte (ICR mice [1]; male, 100 μg/kg·day oral): →
Amount of hemoglobin (ICR mice [1]; male, 1000 μg/kg·day oral): →
Homatocrit (ICR mice [1]; male, 1000 μg/kg·day oral): →
Number of erythrocyte (ICR mice [1]; male, 1000 μg/kg·day oral): →
Number of leucocyte (ICR mice [1]; male, 1000 μg/kg·day oral): →
pathological inspection of organs (ICR mice [2]): No particular abnormality was observed
growth curve of the measured weights [3]: no significant difference
Weight of organs: Adrenal gland (ICR mice [4]; gemale, 10 μg/kg·day oral): →
Weight of organs: Brain (ICR mice [4]; gemale, 10 μg/kg·day oral): →
Weight of organs: Heart (ICR mice [4]; gemale, 10 μg/kg·day oral): →
Weight of organs: Hypo-physis (ICR mice [4]; gemale, 10 μg/kg·day oral): →
Weight of organs: Kidney (ICR mice [4]; gemale, 10 μg/kg·day oral): →
Weight of organs: Liver (ICR mice [4]; gemale, 10 μg/kg·day oral): →
Weight of organs: Lung (ICR mice [4]; gemale, 10 μg/kg·day oral): →
Weight of organs: Ovary (ICR mice [4]; gemale, 10 μg/kg·day oral): →
Weight of organs: Spleen (ICR mice [4]; gemale, 10 μg/kg·day oral): →
Weight of organs: Thymus (ICR mice [4]; gemale, 10 μg/kg·day oral): →
Weight of organs: Uterus (ICR mice [4]; gemale, 10 μg/kg·day oral): →
Weight of organs: Adrenal gland (ICR mice [4]; gemale, 100 μg/kg·day oral): →
Weight of organs: Brain (ICR mice [4]; gemale, 100 μg/kg·day oral): →
Weight of organs: Heart (ICR mice [4]; gemale, 100 μg/kg·day oral): →
Weight of organs: Hypo-physis (ICR mice [4]; gemale, 100 μg/kg·day oral): →
Weight of organs: Kidney (ICR mice [4]; gemale, 100 μg/kg·day oral): →
Weight of organs: Liver (ICR mice [4]; gemale, 100 μg/kg·day oral): →
Weight of organs: Lung (ICR mice [4]; gemale, 100 μg/kg·day oral): →
Weight of organs: Ovary (ICR mice [4]; gemale, 100 μg/kg·day oral): →
Weight of organs: Spleen (ICR mice [4]; gemale, 100 μg/kg·day oral): →
Weight of organs: Thymus (ICR mice [4]; gemale, 100 μg/kg·day oral): →
Weight of organs: Uterus (ICR mice [4]; gemale, 100 μg/kg·day oral): →
Weight of organs: Adrenal gland (ICR mice [4]; gemale, 1000 μg/kg·day oral): →
Weight of organs: Brain (ICR mice [4]; gemale, 1000 μg/kg·day oral): →
Weight of organs: Heart (ICR mice [4]; gemale, 1000 μg/kg·day oral): →
Weight of organs: Hypo-physis (ICR mice [4]; gemale, 1000 μg/kg·day oral): →
Weight of organs: Kidney (ICR mice [4]; gemale, 1000 μg/kg·day oral): →
Weight of organs: Liver (ICR mice [4]; gemale, 1000 μg/kg·day oral): →
Weight of organs: Lung (ICR mice [4]; gemale, 1000 μg/kg·day oral): →
Weight of organs: Ovary (ICR mice [4]; gemale, 1000 μg/kg·day oral): →
Weight of organs: Spleen (ICR mice [4]; gemale, 1000 μg/kg·day oral): →
Weight of organs: Thymus (ICR mice [4]; gemale, 1000 μg/kg·day oral): →
Weight of organs: Uterus (ICR mice [4]; gemale, 1000 μg/kg·day oral): →
Weight of organs: Adrenal gland (ICR mice [4]; male, 10 μg/kg·day oral): →
Weight of organs: Brain (ICR mice [4]; male, 10 μg/kg·day oral): →
Weight of organs: Heart (ICR mice [4]; male, 10 μg/kg·day oral): →
Weight of organs: Hypo-physis (ICR mice [4]; male, 10 μg/kg·day oral): →
Weight of organs: Kidney (ICR mice [4]; male, 10 μg/kg·day oral): →
Weight of organs: Liver (ICR mice [4]; male, 10 μg/kg·day oral): →
Weight of organs: Lung (ICR mice [4]; male, 10 μg/kg·day oral): →
Weight of organs: Spleen (ICR mice [4]; male, 10 μg/kg·day oral): →
Weight of organs: Testis (ICR mice [4]; male, 10 μg/kg·day oral): →
Weight of organs: Thymus (ICR mice [4]; male, 10 μg/kg·day oral): →
Weight of organs: Adrenal gland (ICR mice [4]; male, 100 μg/kg·day oral): →
Weight of organs: Brain (ICR mice [4]; male, 100 μg/kg·day oral): →
Weight of organs: Heart (ICR mice [4]; male, 100 μg/kg·day oral): →
Weight of organs: Hypo-physis (ICR mice [4]; male, 100 μg/kg·day oral): →
Weight of organs: Kidney (ICR mice [4]; male, 100 μg/kg·day oral): →
Weight of organs: Liver (ICR mice [4]; male, 100 μg/kg·day oral): →
Weight of organs: Lung (ICR mice [4]; male, 100 μg/kg·day oral): →
Weight of organs: Spleen (ICR mice [4]; male, 100 μg/kg·day oral): →
Weight of organs: Testis (ICR mice [4]; male, 100 μg/kg·day oral): →
Weight of organs: Thymus (ICR mice [4]; male, 100 μg/kg·day oral): →
Weight of organs: Adrenal gland (ICR mice [4]; male, 1000 μg/kg·day oral): →
Weight of organs: Brain (ICR mice [4]; male, 1000 μg/kg·day oral): →
Weight of organs: Heart (ICR mice [4]; male, 1000 μg/kg·day oral): →
Weight of organs: Hypo-physis (ICR mice [4]; male, 1000 μg/kg·day oral): →
Weight of organs: Kidney (ICR mice [4]; male, 1000 μg/kg·day oral): →
Weight of organs: Liver (ICR mice [4]; male, 1000 μg/kg·day oral): →
Weight of organs: Lung (ICR mice [4]; male, 1000 μg/kg·day oral): →
Weight of organs: Spleen (ICR mice [4]; male, 1000 μg/kg·day oral): →
Weight of organs: Testis (ICR mice [4]; male, 1000 μg/kg·day oral): →
Weight of organs: Thymus (ICR mice [4]; male, 1000 μg/kg·day oral): →
Bending strength ([5]; 3 weeks after): 63 ± 33 N/mm
Bending strength ([5]; 6 weeks after): 103 ± 15 N/mm
Ketone body (ICR mice [6]; female, 10 μg/kg oral): →
Occult blood (ICR mice [6]; female, 10 μg/kg oral): →
Protein (ICR mice [6]; female, 10 μg/kg oral): →
Sugar (ICR mice [6]; female, 10 μg/kg oral): →
Urobilinogen (ICR mice [6]; female, 10 μg/kg oral): →
pH (ICR mice [6]; female, 10 μg/kg oral): →
Ketone body (ICR mice [6]; female, 100 μg/kg oral): →
Occult blood (ICR mice [6]; female, 100 μg/kg oral): →
Protein (ICR mice [6]; female, 100 μg/kg oral): →
Sugar (ICR mice [6]; female, 100 μg/kg oral): →
Urobilinogen (ICR mice [6]; female, 100 μg/kg oral): →
pH (ICR mice [6]; female, 100 μg/kg oral): →
Ketone body (ICR mice [6]; female, 1000 μg/kg oral): →
Occult blood (ICR mice [6]; female, 1000 μg/kg oral): →
Protein (ICR mice [6]; female, 1000 μg/kg oral): →
Sugar (ICR mice [6]; female, 1000 μg/kg oral): →
Urobilinogen (ICR mice [6]; female, 1000 μg/kg oral): →
pH (ICR mice [6]; female, 1000 μg/kg oral): →
Ketone body (ICR mice [6]; male, 10 μg/kg oral): →
Occult blood (ICR mice [6]; male, 10 μg/kg oral): →
Protein (ICR mice [6]; male, 10 μg/kg oral): →
Sugar (ICR mice [6]; male, 10 μg/kg oral): →
Urobilinogen (ICR mice [6]; male, 10 μg/kg oral): →
pH (ICR mice [6]; male, 10 μg/kg oral): →
Ketone body (ICR mice [6]; male, 100 μg/kg oral): →
Occult blood (ICR mice [6]; male, 100 μg/kg oral): →
Protein (ICR mice [6]; male, 100 μg/kg oral): →
Sugar (ICR mice [6]; male, 100 μg/kg oral): →
Urobilinogen (ICR mice [6]; male, 100 μg/kg oral): →
pH (ICR mice [6]; male, 100 μg/kg oral): →
Ketone body (ICR mice [6]; male, 1000 μg/kg oral): →
Occult blood (ICR mice [6]; male, 1000 μg/kg oral): →
Protein (ICR mice [6]; male, 1000 μg/kg oral): →
Sugar (ICR mice [6]; male, 1000 μg/kg oral): →
Urobilinogen (ICR mice [6]; male, 1000 μg/kg oral): →
pH (ICR mice [6]; male, 1000 μg/kg oral): →
